From PubChem BioAssay (NCI)
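Briefly, cells in 96-well plates were exposed to five compound concentrations for 48 h, and endpoints were estimated by linear interpolation. TGI marks complete inhibition of growth.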

Columns and labels:
Assay in all cases: inhibition of tumour cell growth, NCI panel, 48 h
[1] = system: 786-0 renal
[2] = system: A498 renal
[3] = system: A549 NSCLC
[4] = system: ACHN renal
[5] = system: CAKI-1 renal
[6] = system: CCRF-CEM leukemia
[7] = system: COLO 205 colon
[8] = system: DLD-1 colon
[9] = system: DMS 273 small cell lung
[10] = system: EKVX NSCLC
[11] = system: HCC-2998 colon
[12] = system: HCT-116 colon
[13] = system: HL-60(TB) leukemia
[14] = system: HOP-18 NSCLC
[15] = system: HOP-62 NSCLC
[16] = system: HOP-92 NSCLC
[17] = system: HT29 colon
[18] = system: IGROV1 ovarian
[19] = system: K-562 leukemia
[20] = system: KM12 colon
[21] = system: KM20L2 colon
[22] = system: LOX IMVI melanoma
[23] = system: LXFL 529 NSCLC
[24] = system: M14 melanoma
[25] = system: M19-MEL melanoma
[26] = system: MALME-3M melanoma
[27] = system: NCI-H226 lung
[28] = system: NCI-H23 lung
[29] = system: NCI-H460 lung
[30] = system: NCI-H522 lung
[31] = system: OVCAR-3 ovarian
[32] = system: OVCAR-4 ovarian
[33] = system: OVCAR-5 ovarian
[34] = system: OVCAR-8 ovarian
[35] = system: RPMI-8226 leukemia
[36] = system: RXF 393 renal
[37] = system: RXF-631 renal
[38] = system: SF-268 CNS
[39] = system: SF-295 CNS
[40] = system: SF-539 CNS
[41] = system: SK-MEL-28 melanoma
[42] = system: SK-MEL-5 melanoma
[43] = system: SK-OV-3 ovarian
[44] = system: SN12C renal
[45] = system: SNB-19 CNS
[46] = system: SNB-75 CNS
[47] = system: SNB-78 CNS
[48] = system: SW-620 colon
[49] = system: TK-10 renal
[50] = system: U251 CNS
[51] = system: UACC-257 melanoma
[52] = system: UACC-62 melanoma
[53] = system: UO-31 renal
[54] = system: XF 498 CNS
[55] = system: DMS 114 small cell lung
[56] = system: HCT-15 colon
[57] = system: MOLT-4 leukemia
[58] = system: SK-MEL-2 melanoma
[59] = system: SR leukemia

Measured: TGI

CC(=O)OCC1(C)C(OC(C)=O)CCC2(C)C(CC(OC(C)=O)C3=CCOC3=O)C(O)(CO)CCC12 (configuration not stated)
not listed: [55] | [56] | [57] | [58] | [59]
> 100 µM: all other assays above

Cc1nc2sccn2c1C(=O)N/N=C1\SCC(=O)N1C
not listed: [2] | [24] | [32] | [46] | [47] | [53]
> 100 µM: all other assays above
